Read-outs that look alike come from different tables or passages of the source.

For assay [1], the system named is P. falciparum. Put plainly: microbe, parasite or virus in culture. Conditions: Plasmodium falciparum, read-out: chloroquine IC50, control (no NPE added), control without NPE, used to calculate the degree of chloroquine resistance.
Protocol: (§1) NPE solutions with increasing average EO content were tested for anti-P. falciparum activity and the IC50S ? of these materials were determined using a non-linear regression analysis.
(§2) P. falciparum cultures were grown in A+ blood obtained by venipuncture of volunteers. Cultures of the laboratory lines ItG and 3D7 [Dolan, 1993] and the patient isolates were maintained by the method of Trager and Jensen [Trager, 1976] using RPMI 1640 supplemented with 10% human serum and 50 μM hypoxanthine. […] In vitro drug susceptibility testing was performed using the WHO In Vitro Micro Test (Mark III) [1997]. The IC50 values were determined using a non-linear regression analysis of the dose-response curve.
Assay [2] deals with P. falciparum. Conditions: read-out: chloroquine IC50, control (no NPE added); control without NPE, used to calculate the degree of chloroquine resistance.
Protocol: as §1, §2

Regarding `CCN(CC)CCCC(C)Nc1ccnc2cc(Cl)ccc12` (centres unmarked) [chloroquine], the IC50 in assay [1] is 240 ± 60 nM; in assay [2], 274 ± 56 nM.

The IC50 is the concentration that inhibits the measured activity by half.

Values taken from patent publication US7163950B1, “Surfactants as malarial chloroguine resistance reversal agents” (priority 2000, dated 2007).
